The subject of this assay is Penicillin binding protein purified from Bacillus stearothermophilus. Description: Sensitivity of the test device for different antibiotics (Example 23). Further details: key: 0: no intensity; 1: low intensity; 2: medium intensity; 3: high intensity. Here is the method: A nitrocellulose HF90 membrane (Millipore; length 25 mm) was used as a detection region. The membrane was glued to a polystyrene laminated card (thickness 0.254 mm) 8 mm from the proximal end of the card. Next, the detection zone and control zone were applied onto the nitrocellulose membrane. The detection zone was applied by dispensing 1 mg/ml of a 7ACA-spacer-BSA conjugate in 20 mM KPO4-buffer (pH 7.5) with a Biodot Dispense workstation XYZ 3050 with frontline at 0.2 μl/cm. The control zone was applied by dispensing 0.15 mg/ml of an anti-IgY antibody in 20 mM KPO4-buffer (pH 7.5) comprising 0.675 mg/ml BSA, 5% w/v saccharose and 20 mM NaCl with a Biodot Dispense workstation XYZ 3050 with frontline at 0.8 μl/cm. After drying of the zones, the nitrocellulose membrane was blocked by spraying a solution comprising 10 mM Tris buffer (pH 8) comprising 2% w/v BSA and 0.05% w/v Tween-20 using a Biodot Dispense workstation XYZ 3050 with airjet 3×. The solution was sprayed onto the membrane at a distance of 2 mm below the detection zone. Thereafter, the sample receiving region (VF2 membrane from Millipore; length 1 cm) was glued at the proximal end of the card overlapping 2 mm with the nitrocellulose membrane. The absorbing region (10038 membrane from Millipore; length 20 mm) was glued at the distal end of the card with an overlap of 2 mm on the nitrocellulose membrane. The obtained cards were dried at 37° C. in a dry atmosphere (0% relative humidity). The card was cut in strips of 5.2 mm width and kept at a dry atmosphere (0% relative humidity).
Streptavidin-coated gold particles were synthesized by reacting colloidal gold (diameter 40 nm; 1 OD/ml) with 10 μg/ml streptavidin. Next, the obtained solution was concentrated by tangential flow filtration, washed and stored in a Tris buffer (pH 8) including NaCN. Penicillin binding protein purified from Bacillus stearothermophilus was biotinylated (1:4) with D-biotinyl-epsilon-aminocaproic acid-N-hydroxysuccinimide ester. Next, the penicillin binding protein-gold conjugate was synthesized by reacting 1.5 μg biotinylated penicillin binding protein with 1 OD streptavidin-coated gold particles for 1 hour, followed by centrifugation at 10,000×g for 5 minutes and resuspension of the obtained pellet in 45 mM bicarbonate buffer comprising 0.1% w/v Triton X-100 (pH 9.6).
Thereafter, 140-200 mOD of the penicillin binding protein-gold conjugate and 5-20 mOD of the IgY-gold conjugate was solubilized in 100 μl buffer (80 mM Tris buffer comprising 0.01% w/v Triton-X-100, 0.4% w/v BSA, 5% v/v glycerin and 2% w/v saccharose (pH 8.5)) and 0.75 μl of the solution was dispensed per tube and dried for 12 hours at 40° C. The obtained tubes were sealed.
150 μl of spiked milk was added per tube containing the dried conjugates. The concentration of penicillin G in the added milk varied from 0 to 4 ng/g (tube 1: 0 ng/g; […]; tube 2: 2 ng/g; tube 3: 3 ng/g; and tube 4: 4 ng/g). The obtained liquid composition was incubated for 2 minutes at 64° C. in an incubator. A test device was put into the tube and incubated for 3 minutes at 64° C. in the incubator. The result was read by eye.
The test was done essentially as described in Example 3, with the proviso that different antibiotics at different concentrations were tested.

In the case of `CC1(C)S[C@@H]2[C@H](NC(=O)[C@H](N)c3ccc(O)cc3)C(=O)N2[C@H]1C(=O)O` [Amoxicillin], the “Intensity of detection zone” value by setting is: (Amoxicillin 3.3 ng/g in milk) 2; (Amoxicillin 4.3 ng/g in milk) 1; (Amoxicillin 5.3 ng/g in milk) 1; (Amoxicillin 6.3 ng/g in milk) 0; (Amoxicillin 7.3 ng/g in milk) 0.
As to `CC1(C)S[C@@H]2[C@H](NC(=O)[C@H](N)c3ccccc3)C(=O)N2[C@H]1C(=O)O` [Ampicillin], the “Intensity of detection zone” value (Ampicillin 5.3 ng/g in milk) was found to be 2; the “Intensity of detection zone” value (Ampicillin 6.9 ng/g in milk) is on record as 1; the “Intensity of detection zone” value (Ampicillin 8.5 ng/g in milk) is on record as 0; the “Intensity of detection zone” value (Ampicillin 10.1 ng/g in milk) is reported as 0; the “Intensity of detection zone” value (Ampicillin 11.7 ng/g in milk) came to 0.
On to `CC1=C(C(=O)O)N2C(=O)[C@@H](NC(=O)[C@H](N)c3ccccc3)[C@H]2SC1` [Cefalexin], for which the “Intensity of detection zone” value runs as follows: (Cefalexin 34.0 ng/g in milk) 2; (Cefalexin 43.0 ng/g in milk) 1; (Cefalexin 52.0 ng/g in milk) 0; (Cefalexin 61.0 ng/g in milk) 0; (Cefalexin 70.0 ng/g in milk) 0.
As to `NC(=O)c1cc[n+](CC2=C(C(=O)[O-])N3C(=O)[C@@H](NC(=O)Cc4cccs4)[C@H]3SC2)cc1` [Cefalonium], the “Intensity of detection zone” value runs as follows: (Cefalonium 3.2 ng/g in milk) 2; (Cefalonium 4.0 ng/g in milk) 1; (Cefalonium 4.8 ng/g in milk) 0; (Cefalonium 5.6 ng/g in milk) 0; (Cefalonium 6.4 ng/g in milk) 0.
On to `Cc1nnc(SCC2=C(C(=O)O)N3C(=O)[C@@H](NC(=O)Cn4cnnn4)[C@H]3SC2)s1` [Cefazolin], for which the “Intensity of detection zone” value is, setting by setting: (Cefazolin 10.0 ng/g in milk) 2; (Cefazolin 12.5 ng/g in milk) 1; (Cefazolin 15.0 ng/g in milk) 0; (Cefazolin 17.5 ng/g in milk) 0; (Cefazolin 20.0 ng/g in milk) 0.
Consider `CCN1CCN(C(=O)N[C@@H](C(=O)N[C@@H]2C(=O)N3C(C(=O)O)=C(CSc4nnnn4C)CS[C@H]23)c2ccc(O)cc2)C(=O)C1=O` [Cefoperazone], for which the “Intensity of detection zone” value reads like this: (Cefoperazone 4.0 ng/g in milk) 2; (Cefoperazone 4.9 ng/g in milk) 2; (Cefoperazone 5.8 ng/g in milk) 1; (Cefoperazone 6.7 ng/g in milk) 1; (Cefoperazone 7.6 ng/g in milk) 0.
For the compound `CO/N=C(\C(=O)N[C@@H]1C(=O)N2C(C(=O)[O-])=C(C[n+]3cccc4c3CCCC4)CS[C@H]12)c1csc(N)n1` [Cefquinome], the “Intensity of detection zone” value (Cefquinome 12.5 ng/g in milk) was 2; the “Intensity of detection zone” value (Cefquinome 15.8 ng/g in milk) is 1; the “Intensity of detection zone” value (Cefquinome 19.1 ng/g in milk) was determined as 0; the “Intensity of detection zone” value (Cefquinome 22.4 ng/g in milk) was determined as 0; the “Intensity of detection zone” value (Cefquinome 25.7 ng/g in milk) came to 0.
On to `CO/N=C(\C(=O)N[C@@H]1C(=O)N2C(C(=O)O)=C(CSC(=O)c3ccco3)CS[C@H]12)c1csc(N)n1` [Ceftiofur], for which the “Intensity of detection zone” value stood at 2 (Ceftiofur 4.0 ng/g in milk); 1 (Ceftiofur 5.1 ng/g in milk); 0 (Ceftiofur 6.2 ng/g in milk); 0 (Ceftiofur 7.3 ng/g in milk); 0 (Ceftiofur 8.4 ng/g in milk).
For `Cc1onc(-c2ccccc2Cl)c1C(=O)N[C@@H]1C(=O)N2[C@@H]1SC(C)(C)[C@@H]2C(=O)O` [Cloxacillin], the “Intensity of detection zone” value runs as follows: (Cloxacillin 32.5 ng/g in milk) 1; (Cloxacillin 43.2 ng/g in milk) 0; (Cloxacillin 53.9 ng/g in milk) 0; (Cloxacillin 64.6 ng/g in milk) 0; (Cloxacillin 75.3 ng/g in milk) 0.
As for `Cc1onc(-c2c(Cl)cccc2Cl)c1C(=O)N[C@@H]1C(=O)N2[C@@H]1SC(C)(C)[C@@H]2C(=O)O` [Dicloxacillin], the “Intensity of detection zone” value runs as follows: (Dicloxacillin 15.0 ng/g in milk) 3; (Dicloxacillin 20.0 ng/g in milk) 2; (Dicloxacillin 25.0 ng/g in milk) 2; (Dicloxacillin 30.0 ng/g in milk) 1; (Dicloxacillin 35.0 ng/g in milk) 0.
With `CCOc1ccc2ccccc2c1C(=O)N[C@@H]1C(=O)N2[C@@H]1SC(C)(C)[C@@H]2C(=O)O` [Nafcillin], the “Intensity of detection zone” value runs as follows: (Nafcillin 40.0 ng/g in milk) 3; (Nafcillin 50.5 ng/g in milk) 2; (Nafcillin 61.0 ng/g in milk) 1; (Nafcillin 71.5 ng/g in milk) 0; (Nafcillin 82.0 ng/g in milk) 0.
Take `Cc1onc(-c2ccccc2)c1C(=O)N[C@@H]1C(=O)N2[C@@H]1SC(C)(C)[C@@H]2C(=O)O` [Oxacillin]: the “Intensity of detection zone” value worked out at 2 (Oxacillin 27.0 ng/g in milk); 2 (Oxacillin 34.8 ng/g in milk); 1 (Oxacillin 42.6 ng/g in milk); 0 (Oxacillin 50.4 ng/g in milk); 0 (Oxacillin 58.2 ng/g in milk).

The values are drawn from patent US9182397B2, “Immunoassay for detecting antibiotics” (DSM IP ASSETS B.V., priority 2011, dated 2015).
